Counter-ions that a name gives are not always drawn.
What was measured:
[1] = system: C57BL6/J mice exposed intranasally to house dust mite extract (HDM); assay: HDM animal model of allergic airway inflammation; assay type: in vivo, mouse
Description: Mice received water as a control or L-tyrosine (reagent grade, ≥98% Sigma-Aldrich, St. Louis, Mo.) resuspended in drinking water under sterile conditions at the concentration of 100 mg/kg/day or 500 mg/kg/day (based on the assumption of a mouse consuming 4 ml of water daily). All mice received the treatment 2 weeks prior and throughout the experiment. […] Control mice received 200 μl of saline. […]. For experiments employing antibiotic treatment, 3-week old mice were treated with a combination enrofloxacin (10 mg/kg/day) and amoxicillin with clavulanic acid (1 mg/kg/day) for one week, followed by one week of only amoxicillin with clavulanic acid (1 mg/kg/day). Then, mice were then put on L-tyrosine diet in drinking water for two weeks followed by HDM exposure as before. During this time, mice were maintained on antibiotic treatment with amoxicillin/clavulanic acid until end of experiment.
Mice were anaesthetised by the inhalation of 4% isoflurane in oxygen for 3-5 minutes. 20 μg of protein content of crude house dust mite extract (HDM) (Greer Laboratories Inc., Lenoir, N.C.) in 20 μl of sterile phosphate-buffered saline (PBS) (Gibco™) was applied intranasally on days 0, 11, 12 and 13. Mice were humanely sacrificed with the lethal dose of pentobarbital (Streuli Pharma AG, Uznach, Switzerland) on day 14.
Bronchoalveolar lavage fluid (BALF) was collected by flushing airways with 0.5 ml PBS supplemented with 0.2% bovine serum albumin (Sigma-Aldrich, St. Louis, Mo.). Total cell number was determined with Coulter Counter (IG Instrumenten-Gesellschaft AG, Basel, Switzerland) while differential cell staining performed on cytospins stained with Diff-Quik solution (Dade Behring, Siemens Healthcare Diagnostics, Deerfield, Ill.). Percentages of neutrophils, macrophages, lymphocytes and eosinophils were assessed by counting 200 cells per sample.
Concentrations of interleukin-4, -5, -13, -17 and IFN-γ in culture supernatants were analysed with mouse Ready-Set-Go!™ ELISA kits (eBioscience™, San Diego, Calif.) according to manufacturer's instructions. To measure the levels of HDM-specific IgG1 and IgE in plasma, half area 96-well plates (Corning) were coated with HDM (10 μg in PBS) overnight at 4° C., followed by the incubation of samples for 2 hours at RT, and the addition of alkaline-phophatase-conjugated goat anti-mouse IgE or IgG1 (both from SouthernBiotech, Birmingham, Ala.; diluted at 1 μg ml-1 in PBS 0.2% BSA) for 2 hours at RT. 4-nitrophenyl phosphate sodium salt hexahydrate (pNPP) (Sigma) was used as a substrate, and the colorimetric reaction was read at 405 nm on the Synergy H1 microplate reader (Biotek, Luzern, Switzerland). To measure the levels of total IgA and IgM as well as hen egg lysozyme (HEL)-specific IgA and IgM in mouse faeces, faecal pellets were homogenized in 0.8 ml cold PBS, centrifuged at 400 g for 5 minutes to remove large debris, filtered through 40 μm cell strainer and centrifuged at 8000 g for 10 minutes to pellet bacteria. The supernatant was collected and loaded for 2 hours at RT on 96-well half area plates coated a day before at 4° C. with anti-IgA (Southern Biotech; 2 μg ml-1), anti-IgM (SouthernBiotech; 2 μg ml-1) or HEL protein (Sigma-Aldrich; 10 μg/ml). This step was followed by the addition of alkalinephophatase-conjugated goat anti-mouse IgA or IgM (both at 1 μg ml-1 in PBS 0.2% BSA) for 2 hours at RT. 4-nitrophenyl phosphate sodium salt hexahydrate (pNPP) (Sigma) was used as a substrate, and the colorimetric reaction was read at 405 nm as before.
Mediastinal lymph nodes were filtered through a 40 μm cell strainer, washed with PBS supplemented with 1% fetal bovine serum and 2 mM EDTA (Invitrogen) (MACS buffer). Lungs were finely cut with scissors, digested with Collagenase IV (Gibco™) in Iscove's modified Dulbecco's medium (IMDM, Gibco™) for 50 min at 37° C. and processed as the lymph nodes.

CCL20 = assay: In vitro stimulation of lung cells enriched for airway epithelial cells, chemokine release; assay type: cell-based, mouse; settings: 24 hours; for CCL20 production by lung cells stimulated with LPS: EGF 100 ng/ml, amphiregulin 500 ng/ml or gefitinib 0.16 μM, lower efficacy than PCS
Description: Mice were euthanized by CO2 inhalation, instilled with a 1.5 ml dispase II (Sigma-Aldrich) intratracheally, followed by intratracheal injection of 0.5 ml 1% low melting point agarose (Sigma-Aldrich). Lungs were then covered with ice for 3 min, removed and placed in a 15 ml falcon tube with 2 ml of dispase II, and incubated for 45 min with gentle agitation. This was followed by mechanical disruption of the lung lobes using forceps in DMEM supplemented with DNAse I (Sigma-Aldrich, 1U/ml), filtration through 70- and 40-μM cell strainers (Falcon®, Corning) and lysis of erythrocytes using red blood cell lysing buffer (BD Biosciences). Lung cells were plated in a flat-bottom 24-well or 96-well plates (Costar) coated with fibronectin (Sigma-Aldrich, 10 μg/ml) at the density of 1 mln or 0.2 mln cells/well, respectively.
5% CO2, after which the supernatant was collected and stored at −20° C. until further use.

[2] = system: mice exposed intranasally to ovalbumin/LPS; assay: OVA/LPS animal model of pulmonary type 1 inflammation; assay type: in vivo, mouse; settings: PCS intravenous on day -1 and day 11
Description: Results are from one experiment (n=4 per group, p=0.0335). All data are presented as mean values+/−SEM. *p≤0.05. Statistical significance was evaluated with Mann-Whitney test.
Mice were anaesthetized by the inhalation of 4% isoflurane in oxygen for 3-5 min. 100 μg Ovalbumin (Invivogen, cat nr vac-pova) was mixed with 10 μg LPS from E. coli (Sigma-Aldrich, cat nr L4391) and administered intranasally per mouse on days 0, 11, 12 and 13. Mice were sacrificed with the lethal dose of pentobarbital on day 14.

[3] = mouse, in vivo
Description: Concentrations of cystatin, clusterin, lipocalin-2 and osteopontin in serum of vehicle or PCStreated mice were determined with MILLIPLEX MAP Mouse Kidney Injury Magnetic Bead Panel 2—Toxicity Multiplex Assay (Merck) according to manufacturer's instructions.

[4] = system: epithelial cells, dendritic cells, macrophages and bone marrow precursors; assay: Effect of PCS on cells (deleteriousness); assay type: cell-based
[5] = mice with normal renal function, cited from earlier work
[6] = PCS intravenous 40 mg/kg, lymph node cells restimulated with HDM for 4 days
[7] = lung cells from naive mice, HDM 100 μg/ml, PCS 100 μg/ml

Compound	FoxP3+ Tregs in the lungs ([1]; PCS intravenous 40 mg/kg)	numbers of lung CD4+ T cells ([1]; PCS intravenous 40 mg/kg)	recruitment of neutrophils ([1]; PCS intravenous 40 mg/kg)	infiltration of DCs into the lungs ([1]; PCS intravenous 40 mg/kg, vs saline)	production of IL-5 by restimulated mediastinal lymph nodes [1, 6]	production of IL-13 by restimulated mediastinal lymph nodes [1, 6]	eosinophilia in the BALF ([1]; PCS intravenous (retro-orbital) 40 mg/kg on day -1 and day 11, vs saline, HDM days 0, 11, 12, 13)	HDM-induced production of CCL20 (CCL20; [7])	HDM-induced secretion of other chemokines (CCL20; [7])	LPS-induced CCL20 (CCL20; lung cells from naive mice, LPS 10 μg/ml, PCS 100 μg/ml)	infiltration of CD4+ T cells to the airways ([2]; ovalbumin/LPS)	infiltration of CD8+ T cells to the airways ([2]; ovalbumin/LPS)	infiltration of neutrophils to the airways ([2]; ovalbumin/LPS intranasal days 0, 11, 12, 13)	elevation of major kidney toxicity markers [3]	deleterious effect on epithelial cells, dendritic cells, macrophages and bone marrow precursors [4]	time to clearance from the blood ([5]; intraperitoneal or oral PCS) [h]	accumulation on chronic administration ([5]; twice a day for 4 weeks)	CCL20 production by lung cells stimulated with LPS (CCL20; LPS 10 μg/ml)
Cc1ccc(OS(=O)(=O)O)cc1 [PCS, p-cresol sulfate]	no major alterations	no major alterations	reduced	decreased	reduced	reduced	ameliorated	completely abrogated	did not have an effect	inhibited	inhibited	inhibited	inhibited	not detected	not deleterious	≤ 4	does not lead to its accumulation	
COc1cc2ncnc(Nc3ccc(F)c(Cl)c3)c2cc1OCCCN1CCOCC1 [gefitinib, reference compound]																		selective reduction
EGF: high affinity EGFR ligand, Epidermal Growth Factor																		selective reduction

From patent US20230045151A1, “COMPOSITIONS AND METHODS” (MONASH UNIVERSITY, priority 2020, published 2023)
